pKd: −log10 of the molar value. Values after ≈ are worked out from the molar mass of the structure shown.

The pKd is −log10 of the Kd, conventionally taken in molar units. Read a low pKd as a large Kd.

The test system of test [1] is T1, Pseudomonas aeruginosa PAO1-Pore.
T1 construct: PAO1-Pore (hyperporinated, attTn7::mini-Tn7T-Gmr-lacIq-pLAC-fhuADCΔ4L)
The test can be described thus: microbe, parasite or virus in culture. Set-up: 2-fold serial broth dilution MIC (at least 90% growth inhibition). The conditions noted are these: PAO1, read-out: MICs (mg/L) in strains: / PAO1-Pore. On the procedure: (§1) Antibacterial activities were tested using a 2-fold serial dilution broth assay as described previously ([13]). The antibacterial activities are expressed as MIC (defined as at least 90% of growth inhibition) and IC50. To follow the fate of compounds in cells and to identify descriptors associated with different permeation barriers, we first separated the contributions of the OM barrier and active efflux in measured activities of compounds. For this purpose, the bacterial growth-inhibitory activities for all Rempex compounds were analyzed in four P. aeruginosa strains: the wild-type strain, PAO1; the PΔ6 strain, lacking six efflux pumps (ΔmexAB-oprM, ΔmexCD-oprJ, ΔmexXY, ΔmexJKL, ΔmexEF-oprN, and ΔtriABC); and their hyperporinated derivatives, PAO1-Pore and PΔ6-Pore, respectively ([39]). These strains were previously shown to differ dramatically in their susceptibilities to various classes of antibiotics because of differences in efflux proficiency and permeation across the OM ([13], [15]). To normalize to the differences in target inhibition potency among compounds, our key measured parameters were efflux ratios and OM barrier ratios, defined as the 50% inhibitory concentration for the parent/mutant (IC50 parent/IC50 mutant), for efflux mutants and hyperporinated mutants, respectively (see Table S1 in the supplemental material). More specifically, the IC50 ratios for PAO1/PAO1-Pore and PΔ6/PΔ6-Pore define the contribution of the OM barrier to the activities of compounds in the presence and absence of efflux, respectively. […] Activities of only a few compounds were slightly affected by the OM. Among them are compounds 58 and 46 (Fig. 1A), whose activity is enhanced by hyperporination of efflux-deficient PΔ6-Pore cells by 16- and 8-fold, respectively.

Test [2] concerns T2, Pseudomonas aeruginosa PAO1.
T2 construct: PAO1 (attTn7::mini-Tn7T-Gm-lacIq-pLAC-MCS)
The test can be described thus: microbe, parasite or virus in culture. More on the design: 2-fold serial broth dilution MIC (at least 90% growth inhibition). The conditions noted are these: PAO1, read-out: MICs (mg/L) in strains: / PAO1. On the procedure:
as §1

The test system of test [3] is T3, Pseudomonas aeruginosa PΔ6-Pore.
T3 construct: PΔ6-Pore (six efflux pumps deleted, hyperporinated with fhuADCΔ4L)
Description: microbe, parasite or virus in culture. Set-up: 2-fold serial broth dilution MIC (at least 90% growth inhibition). The conditions noted are these: read-out: MICs (mg/L) in strains: / D6-Pore. On the procedure:
as §1

The test system of test [4] is T4, Pseudomonas aeruginosa PΔ6.
T4 construct: PΔ6 (PAO1 ΔmexAB-oprM ΔmexCD-oprJ ΔmexXY ΔmexJKL ΔmexEF-oprN ΔtriABC, efflux-deficient)
Description: microbe, parasite or virus in culture. More on the design: 2-fold serial broth dilution MIC (at least 90% growth inhibition). The conditions noted are these: read-out: MICs (mg/L) in strains: / D6. On the procedure:
as §1

A further test has as its target T5, MexB (Pseudomonas aeruginosa, UniProt P52002).
T5 construct: purified MexB immobilized by amine coupling
The test can be described thus: SPR (Biacore T200, CM5 chip, immobilized MexB, kinetic fit). It is filed as binding. Background: In SPR one partner is held on a chip, and binding of the other changes the refractive index at the surface.

T5 sequence (P52002 whole entry): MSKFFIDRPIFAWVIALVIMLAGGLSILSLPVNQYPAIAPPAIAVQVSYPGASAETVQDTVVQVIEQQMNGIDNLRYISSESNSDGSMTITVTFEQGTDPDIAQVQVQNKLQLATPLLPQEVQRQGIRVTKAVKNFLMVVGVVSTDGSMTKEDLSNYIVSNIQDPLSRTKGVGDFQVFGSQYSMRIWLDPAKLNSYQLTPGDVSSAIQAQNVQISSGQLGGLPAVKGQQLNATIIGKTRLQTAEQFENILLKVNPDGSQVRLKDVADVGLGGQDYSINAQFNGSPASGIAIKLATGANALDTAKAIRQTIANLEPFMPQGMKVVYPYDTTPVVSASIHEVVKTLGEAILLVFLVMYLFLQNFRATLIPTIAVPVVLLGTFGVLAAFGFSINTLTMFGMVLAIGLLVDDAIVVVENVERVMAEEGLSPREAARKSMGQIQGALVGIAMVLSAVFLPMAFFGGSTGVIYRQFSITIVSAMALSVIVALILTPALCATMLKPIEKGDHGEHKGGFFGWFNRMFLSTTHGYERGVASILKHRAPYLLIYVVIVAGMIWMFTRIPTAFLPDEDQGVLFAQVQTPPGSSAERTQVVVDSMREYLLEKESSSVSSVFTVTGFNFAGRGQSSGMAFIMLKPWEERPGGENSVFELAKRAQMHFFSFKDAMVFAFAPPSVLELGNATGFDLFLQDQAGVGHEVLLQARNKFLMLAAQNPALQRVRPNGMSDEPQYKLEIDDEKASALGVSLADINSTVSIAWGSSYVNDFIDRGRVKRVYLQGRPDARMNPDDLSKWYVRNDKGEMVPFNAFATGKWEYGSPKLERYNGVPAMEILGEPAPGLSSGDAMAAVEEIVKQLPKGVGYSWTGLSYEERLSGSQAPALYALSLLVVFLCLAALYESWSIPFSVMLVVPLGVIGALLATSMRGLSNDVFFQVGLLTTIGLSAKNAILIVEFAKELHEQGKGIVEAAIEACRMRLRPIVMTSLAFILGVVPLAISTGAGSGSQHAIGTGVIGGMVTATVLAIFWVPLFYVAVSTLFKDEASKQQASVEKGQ

Turning to `Cc1cc(O)c(C(=O)N[C@@H](C(=O)N[C@@H]2C(=O)N3C(C(=O)O)=C(CSc4nnnn4C)CS[C@H]23)c2ccc(O)cc2)cn1` [OU-031452, cefpiramide], the MIC in test [1] was above 1000 mg/L; in test [2], above 1000 mg/L; in test [3], 250 mg/L (≈ 408 µM); in test [4] it was above 1000 mg/L.
As to `CCN1CCN(C(=O)N[C@@H](C(=O)N[C@@H]2C(=O)N3C(C(=O)O)=C(CSc4nnnn4C)CS[C@H]23)c2ccc(O)cc2)C(=O)C1=O` [OU-634, cefoperazone], the MIC in test [1] was determined as 0.97 mg/L (≈ 1.5 µM); in test [2] it was 3.9 mg/L (≈ 6.04 µM); in test [3], 0.97 mg/L (≈ 1.5 µM).
Consider `C[N+](CCN)(CCN)CCC[C@H](N)C(=O)N[C@H](CCc1ccc(C(F)(F)F)cc1)C(=O)Nc1cnc2ccccc2c1` [compound 17], for which the pKd at MexB was 4.62.
Consider `Nc1nc(/C(=C/CC(=O)O)C(=O)N[C@@H]2C(=O)N3C(C(=O)O)=CCS[C@H]23)cs1` [OU-668, ceftibuten], for which the MIC in test [1] was 2000 mg/L (≈ 4870 µM); in test [2] it was above 2000 mg/L; in test [3], 128 mg/L (≈ 312 µM); in test [4], 1000 mg/L (≈ 2440 µM).
Take `CO[C@@]1(NC(=O)C(C(=O)O)c2ccc(O)cc2)C(=O)N2C(C(=O)O)=C(CSc3nnnn3C)CO[C@@H]21` (stereo partly drawn) [OU-672, moxalactam]: the MIC in test [1] amounted to 15.6 mg/L (≈ 30 µM); in test [2] it was 62.5 mg/L (≈ 120 µM); in test [3], 0.97 mg/L (≈ 1.86 µM); in test [4] it was 62.5 mg/L (≈ 120 µM).
With `CO[C@@]1(NC(=O)C2SC(=C(C(N)=O)C(=O)O)S2)C(=O)N2C(C(=O)O)=C(CSc3nnnn3C)CS[C@@H]21` (stereo partly drawn) [OU-654, cefotetan], the MIC in test [1] is 200 mg/L (≈ 347 µM); in test [2], above 400 mg/L; in test [3], 12.5 mg/L (≈ 21.7 µM); in test [4] it was 100 mg/L (≈ 174 µM).
The matching figures for `CO/N=C(\C(=O)N[C@@H]1C(=O)N2C(C(=O)O)=C(CSc3nc(=O)c(O)nn3C)CS[C@H]12)c1csc(N)n1` [OU-640, ceftriaxone]: 0.97 mg/L (≈ 1.75 µM), 15.6 mg/L (≈ 28.1 µM), 0.06 mg/L (≈ 0.108 µM) and 3.9 mg/L (≈ 7.03 µM).
Consider `O=C(O)C1=C(CSc2nnnn2CS(=O)(=O)O)CS[C@@H]2[C@H](NC(=O)[C@H](O)c3ccccc3)C(=O)N12` [OU-666, cefonicid], for which the values for the MIC in test [1], in test [2] and in test [3] were 3.9 mg/L (≈ 7.19 µM), 62.5 mg/L (≈ 115 µM) and 3.9 mg/L (≈ 7.19 µM), respectively.

For the origin of these results see PMC7845643, “Predictive Rules of Efflux Inhibition and Avoidance in Pseudomonas aeruginosa” (mBio, 2021).
